Calls of active or inactive are those of the source. The rule behind the calls is not given here.

The first assay concerns the target T1, Adenosine receptor A1 (Rattus norvegicus) (UniProt P25099).
T1 sequence (whole entry): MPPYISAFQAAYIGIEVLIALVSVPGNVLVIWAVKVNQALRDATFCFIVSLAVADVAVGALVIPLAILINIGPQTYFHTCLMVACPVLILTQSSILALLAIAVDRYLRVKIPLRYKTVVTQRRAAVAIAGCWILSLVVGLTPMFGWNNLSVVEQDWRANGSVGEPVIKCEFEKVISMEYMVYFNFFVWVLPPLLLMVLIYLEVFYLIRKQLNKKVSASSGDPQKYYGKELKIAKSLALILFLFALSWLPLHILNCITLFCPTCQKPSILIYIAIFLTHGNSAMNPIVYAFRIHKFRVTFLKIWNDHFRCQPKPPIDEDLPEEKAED
Briefly: Displacement of [3H]DPCPX from adenosine A1 receptor in rat forebrain membrane assessed as fraction of receptor bound radioligand at 100 ug/mL. The assay is classed as cell membranes.
As for `O=c1cc(-c2ccc(O)cc2)oc2c([C@@H]3O[C@H](CO)[C@@H](O)[C@H](O)[C@H]3O)c(O)cc(O)c12`, the Activity stood at 103%. The same measure, in the same setting: under `C[C@@H]1O[C@@H](OC[C@H]2O[C@@H](Oc3c(-c4ccc(O)cc4)oc4cc(O)cc(O)c4c3=O)[C@H](O)[C@@H](O)[C@@H]2O)[C@H](O)[C@H](O)[C@H]1O` stands 37%; under `C[C@@H]1O[C@@H](Oc2c(-c3ccc(O)c(O)c3)oc3cc(O)cc(O)c3c2=O)[C@H](O)[C@H](O)[C@H]1O` (stereo in doubt; 6), 50%. Turning to `C[C@@H]1O[C@@H](Oc2c(-c3ccc(O)c(O)c3)oc3cc(O)cc(O)c3c2=O)[C@H](O)[C@H](O)[C@H]1O` (stereo in doubt; 8), the Activity came to 58%.

In the case of `O=c1c(O)c(-c2ccc(O)cc2)oc2cc(O)cc(O)c12`, the Activity stood at 18%.

As to `COc1cc2oc(-c3ccc(O[C@@H]4O[C@H](CO)[C@@H](O)[C@H](O)[C@H]4O)cc3)cc(=O)c2c(O)c1OC` [CIRSIMARIN], the Activity is 2%. Still for that read-out and setting: for `O=c1cc(-c2ccc(O)cc2)oc2cc(O)cc(O)c12` the value was 50%; for `O=c1c(O[C@@H]2O[C@H](CO)[C@H](O)[C@H](O)[C@H]2O)c(-c2ccc(O)c(O)c2)oc2cc(O)cc(O)c12`, 86%; for `C[C@@H]1O[C@@H](OC[C@H]2O[C@@H](Oc3c(-c4ccc(O)c(O)c4)oc4cc(O)cc(O)c4c3=O)[C@H](O)[C@@H](O)[C@@H]2O)[C@H](O)[C@H](O)[C@H]1O`, 103%. With `O=c1c(O)c(-c2cc(O)c(O)c(O)c2)oc2cc(O)cc(O)c12`, the Activity was found to be 24%. `COc1cc(-c2cc(=O)c3c(O)cc(O[C@@H]4O[C@H](CO)[C@@H](O)[C@H](O)[C@H]4O[C@@H]4O[C@@H](C)[C@H](O)[C@@H](O)[C@H]4O)cc3o2)ccc1O`: the Activity was found to be 94%. The same measure, in the same setting: for `COc1cc2oc(-c3ccc(O)cc3)cc(=O)c2c(O)c1OC` the value was 48%.

A further assay deals with T2, Adenosine receptor A1 (Rattus norvegicus, UniProt P25099).
T2 sequence (P25099 whole entry): T1 sequence (whole entry)
Briefly: Displacement of [3H]DPCPX from adenosine A1 receptor in rat forebrain membrane. The assay is classed as cell membranes.
In turn, `COc1cc2oc(-c3ccc(O[C@@H]4O[C@H](CO)[C@@H](O)[C@H](O)[C@H]4O)cc3)cc(=O)c2c(O)c1OC` [CIRSIMARIN] gave a Ki of 3.2 µM.

A further assay addresses T1, Adenosine receptor A1 (Rattus norvegicus). The assay is described as follows: Displacement of [3H]DPCPX from adenosine A1 receptor in rat forebrain membrane in presence of GTP. It is filed as cell membranes.
On to `COc1cc2oc(-c3ccc(O[C@@H]4O[C@H](CO)[C@@H](O)[C@H](O)[C@H]4O)cc3)cc(=O)c2c(O)c1OC` [CIRSIMARIN], for which the result was Active.

The values above are taken from ChEMBL document CHEMBL1146423, “Adenosine-1 active ligands: cirsimarin, a flavone glycoside from Microtea debilis” (J Nat Prod, 1997).
